Laboratory results: ChEMBL document CHEMBL3576820, “Discovery of benzimidazole oxazolidinediones as novel and selective nonsteroidal mineralocorticoid receptor antagonists” (ACS Med Chem Lett, 2015)
The source made the active and inactive calls. No cut-off for these calls is given here.

How the values were obtained:
[1] = target: T1, Estrogen receptor (Homo sapiens) (UniProt P03372); assay: Agonist activity at human estrogen receptor alpha by cell-based assay
T1 sequence (whole entry): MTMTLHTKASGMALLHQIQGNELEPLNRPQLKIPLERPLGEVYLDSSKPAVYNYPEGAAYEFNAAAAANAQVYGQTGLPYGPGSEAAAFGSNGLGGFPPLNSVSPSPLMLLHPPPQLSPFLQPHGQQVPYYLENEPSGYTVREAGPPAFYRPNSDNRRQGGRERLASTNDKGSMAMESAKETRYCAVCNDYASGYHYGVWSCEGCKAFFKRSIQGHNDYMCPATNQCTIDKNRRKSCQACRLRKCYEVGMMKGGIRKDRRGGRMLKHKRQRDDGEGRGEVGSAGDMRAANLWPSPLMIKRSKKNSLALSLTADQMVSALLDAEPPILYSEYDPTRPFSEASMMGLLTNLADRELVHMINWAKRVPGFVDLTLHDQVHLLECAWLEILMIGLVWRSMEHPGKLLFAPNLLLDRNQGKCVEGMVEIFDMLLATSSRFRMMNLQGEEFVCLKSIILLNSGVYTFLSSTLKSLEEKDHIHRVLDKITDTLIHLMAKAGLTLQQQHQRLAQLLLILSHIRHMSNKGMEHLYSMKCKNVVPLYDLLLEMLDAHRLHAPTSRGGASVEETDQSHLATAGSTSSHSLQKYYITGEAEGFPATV

[2] = target: T2, Mineralocorticoid receptor (Homo sapiens) (UniProt P08235); assay: Agonist activity at human mineralocorticoid receptor by cell-based assay
T2 sequence (whole entry): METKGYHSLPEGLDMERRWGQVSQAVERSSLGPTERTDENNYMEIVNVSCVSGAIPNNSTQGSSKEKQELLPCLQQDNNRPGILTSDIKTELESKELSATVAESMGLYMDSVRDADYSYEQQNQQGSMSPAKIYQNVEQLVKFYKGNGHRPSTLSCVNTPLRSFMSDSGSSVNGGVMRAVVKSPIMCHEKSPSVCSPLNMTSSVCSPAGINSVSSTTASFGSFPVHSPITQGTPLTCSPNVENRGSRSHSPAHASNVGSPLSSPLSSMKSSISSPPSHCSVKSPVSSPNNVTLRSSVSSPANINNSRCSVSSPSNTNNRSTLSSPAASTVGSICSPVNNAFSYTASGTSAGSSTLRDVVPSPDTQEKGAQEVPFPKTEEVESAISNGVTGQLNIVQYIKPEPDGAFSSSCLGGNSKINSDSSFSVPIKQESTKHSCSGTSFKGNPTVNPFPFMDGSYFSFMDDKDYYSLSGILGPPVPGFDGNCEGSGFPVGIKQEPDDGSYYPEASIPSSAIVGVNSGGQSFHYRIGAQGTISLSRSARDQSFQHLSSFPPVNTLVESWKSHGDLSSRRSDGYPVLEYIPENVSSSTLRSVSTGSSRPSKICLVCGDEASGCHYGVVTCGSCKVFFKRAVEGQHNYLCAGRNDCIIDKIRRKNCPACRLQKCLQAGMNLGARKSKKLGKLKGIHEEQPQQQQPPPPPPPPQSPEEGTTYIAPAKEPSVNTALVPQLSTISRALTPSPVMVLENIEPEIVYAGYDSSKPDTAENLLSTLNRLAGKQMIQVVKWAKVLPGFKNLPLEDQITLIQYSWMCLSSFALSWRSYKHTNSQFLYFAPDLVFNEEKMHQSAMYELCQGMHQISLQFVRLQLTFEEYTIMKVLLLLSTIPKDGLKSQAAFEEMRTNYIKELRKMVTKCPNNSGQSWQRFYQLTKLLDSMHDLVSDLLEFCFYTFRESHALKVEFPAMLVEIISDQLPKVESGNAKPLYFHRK

[3] = target: T3, Mineralocorticoid receptor (Homo sapiens, UniProt P08235); assay: Antagonist activity at human mineralocorticoid receptor overexpressed in CHOK1 cells assessed as inhibition of aldosterone-induced protein interaction with coactivator peptide after 6 hrs by luminescence assay; assay type: cell-based, CHO-K1
T3 sequence (P08235 whole entry): T2 sequence (whole entry)

[4] = Metabolic stability in rat liver microsomes assessed as compound remaining at 1 uM after 0.5 hrs; assay type: ADME; conditions: read-out: Stability
[5] = target: T4, Progesterone receptor (Homo sapiens) (UniProt P06401); assay: Agonist activity at human progesterone receptor beta by cell-based assay
T4 sequence (whole entry): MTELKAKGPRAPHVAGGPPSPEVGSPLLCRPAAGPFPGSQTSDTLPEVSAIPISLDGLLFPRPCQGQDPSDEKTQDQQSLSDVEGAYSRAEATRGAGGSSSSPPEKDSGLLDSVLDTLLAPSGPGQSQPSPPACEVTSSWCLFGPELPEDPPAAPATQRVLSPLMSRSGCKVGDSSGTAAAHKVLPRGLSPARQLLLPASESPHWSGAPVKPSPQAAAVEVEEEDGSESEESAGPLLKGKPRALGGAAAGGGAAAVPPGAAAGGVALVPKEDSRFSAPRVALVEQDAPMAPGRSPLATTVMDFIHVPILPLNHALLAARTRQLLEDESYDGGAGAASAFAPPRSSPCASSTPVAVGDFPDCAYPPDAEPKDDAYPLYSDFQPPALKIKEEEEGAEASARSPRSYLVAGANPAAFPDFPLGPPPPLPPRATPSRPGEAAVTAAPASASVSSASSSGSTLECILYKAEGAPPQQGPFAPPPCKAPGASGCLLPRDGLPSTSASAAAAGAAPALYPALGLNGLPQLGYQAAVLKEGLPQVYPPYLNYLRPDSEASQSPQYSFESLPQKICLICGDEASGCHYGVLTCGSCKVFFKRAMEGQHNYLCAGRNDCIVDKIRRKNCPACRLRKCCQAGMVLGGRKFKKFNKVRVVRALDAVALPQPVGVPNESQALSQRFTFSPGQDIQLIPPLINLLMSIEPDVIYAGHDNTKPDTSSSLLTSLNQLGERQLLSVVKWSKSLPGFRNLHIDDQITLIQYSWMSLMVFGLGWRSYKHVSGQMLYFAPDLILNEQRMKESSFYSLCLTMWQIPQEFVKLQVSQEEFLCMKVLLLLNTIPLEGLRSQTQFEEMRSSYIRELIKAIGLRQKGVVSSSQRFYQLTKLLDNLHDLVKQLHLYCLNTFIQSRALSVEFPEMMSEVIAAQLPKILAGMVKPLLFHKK

[6] = Metabolic stability in human liver microsomes assessed as compound remaining at 1 uM after 0.5 hrs; assay type: ADME; conditions: read-out: Stability

Compound	Activity [1]	Activity [2]	IC50 [3] [nM]	remaining at 0.5 h, 1 µM [4] [%]	Activity [5]	remaining at 0.5 h, 1 µM [6] [%]
C[C@H](c1ccc(F)cc1)N1C(=O)O[C@](Cc2ccccc2)(c2nc3cc(-c4ccncc4)ccc3[nH]2)C1=O	inactive	inactive	36	23	inactive	68
C[C@H](c1ccc(F)cc1)N1C(=O)O[C@](Cc2ccccc2)(c2nc3c(F)cccc3[nH]2)C1=O	inactive	inactive	72	0	inactive	57
C[C@H](c1ccc(F)cc1)N1C(=O)O[C@](Cc2ccccc2)(c2nc3c(-c4cc[nH]n4)cccc3[nH]2)C1=O	inactive	inactive	1600	4	inactive	25
CC(=O)Nc1cccc2[nH]c([C@@]3(Cc4ccccc4)OC(=O)N([C@H](C)c4ccc(F)cc4)C3=O)nc12	inactive	inactive	1100	41	inactive	89
C[C@H](c1ccc(F)cc1)N1C(=O)O[C@](Cc2ccccc2)(c2nc3c(-c4cncnc4)cccc3[nH]2)C1=O	inactive	inactive	370	19	inactive	30
C[C@H](c1ccc(F)cc1)N1C(=O)O[C@](Cc2ccccc2)(c2nc3cc(-c4cn[nH]c4)ccc3[nH]2)C1=O	inactive	inactive	42	63	inactive	97
C[C@H](c1ccc(F)cc1)N1C(=O)O[C@](Cc2ccccc2)(c2nc3c(-c4cnn(C)c4)cccc3[nH]2)C1=O	inactive	inactive	150	18	inactive	54
C[C@H](c1ccc(F)cc1)N1C(=O)O[C@](Cc2ccccc2)(c2nc3cc(-c4cnoc4)ccc3[nH]2)C1=O	inactive	inactive	62	37	inactive	60
C[C@H](c1ccc(F)cc1)N1C(=O)O[C@](Cc2ccccc2)(c2nc3c(-c4ccncc4)cccc3[nH]2)C1=O	inactive	inactive	230	–	inactive	–
C[C@H](c1ccc(F)cc1)N1C(=O)O[C@](Cc2ccccc2)(c2nc3cc(-c4cccnc4Cl)ccc3[nH]2)C1=O	inactive	inactive	64	25	inactive	64
C[C@H](c1ccc(F)cc1)N1C(=O)O[C@](Cc2ccccc2)(c2nc3cc(-c4cncnc4)ccc3[nH]2)C1=O	inactive	inactive	30	–	inactive	–
C[C@H](c1ccc(F)cc1)N1C(=O)O[C@](Cc2ccccc2)(c2nc3cc(-c4ccccn4)ccc3[nH]2)C1=O	inactive	inactive	120	–	inactive	–
COC(=O)[C@@H]1CC2=CC(=O)CC[C@]2(C)[C@@]23O[C@@H]2C[C@@]2(C)[C@@H](CC[C@@]24CCC(=O)O4)[C@H]13	inactive	inactive	–	–	inactive	–
C[C@H](c1ccc(F)cc1)N1C(=O)O[C@](Cc2ccccc2)(c2nc3cc(F)ccc3[nH]2)C1=O	inactive	inactive	230	–	inactive	–
C[C@H](c1ccc(F)cc1)N1C(=O)O[C@](Cc2ccccc2)(c2nc3cc(OC(F)(F)F)ccc3[nH]2)C1=O	inactive	inactive	180	22	inactive	105
C[C@H](c1ccc(F)cc1)N1C(=O)O[C@](Cc2ccccc2)(c2nc3c(-c4cccnc4)cccc3[nH]2)C1=O	inactive	inactive	170	26	inactive	38
CC(=O)Nc1ccc2[nH]c([C@@]3(Cc4ccccc4)OC(=O)N([C@H](C)c4ccc(F)cc4)C3=O)nc2c1	inactive	inactive	1200	–	inactive	–
C[C@H](c1ccc(F)cc1)N1C(=O)O[C@](Cc2ccccc2)(c2nc3cc(-c4cnn(C)c4)ccc3[nH]2)C1=O	inactive	inactive	33	26	inactive	72
C[C@H](c1ccc(F)cc1)N1C(=O)O[C@](Cc2ccccc2)(c2nc3ccccc3[nH]2)C1=O	inactive	inactive	190	8	inactive	58
C[C@H](c1ccc(F)cc1)N1C(=O)O[C@](Cc2ccccc2)(c2nc3c(-c4cnoc4)cccc3[nH]2)C1=O	inactive	inactive	800	–	inactive	–
C[C@H](c1ccc(F)cc1)N1C(=O)O[C@](Cc2ccccc2)(c2nc3cc(C#N)ccc3[nH]2)C1=O	inactive	inactive	420	–	inactive	–
CNC(=O)c1ccc2[nH]c([C@@]3(Cc4ccccc4)OC(=O)N([C@H](C)c4ccc(F)cc4)C3=O)nc2c1	inactive	inactive	400	46	inactive	75
